# Results reported in patent publication US20100298285A1, “Biclycloheteroaryl Compounds as P2x7 Modulators and Uses Thereof” (priority 2006, published 2010).
# Tested on: IL-1β release, THP-1 cells
# Test: IL-1β release assay in differentiated THP-1 cells stimulated with BzATP (Example 9)
# Type: cell-based
# Conditions: Homo sapiens; 0.1 μM compound ("*" symbols); differentiated THP-1 cells, 250 uM BzATP; read-out: IL-1β% Inhib. @ 0.3 or 0.1 μM
# Method: THP-1 cells (ATCC Cat # 285-IF-100) are plated in 96 well plates at a concentration of 200,000 cells per well and allowed to differentiate in RPMI-1640 media (ATCC Cat # 30-2001) containing 10% FBS, 100 IU/mL penicillin, 100 ug/mL streptomycin, 100 ng/mL LPS and 100 ng/mL IFN-γ for 16 hours. Following differentiation, the cells are treated for an additional 2 hours in RPMI-1640 media containing 100 IU/mL penicillin, 100 ug/mL streptomycin and fresh LPS at 100 ng/mL. The cells are then pretreated for 30 minutes with the compound of interest at the appropriate concentration in RPMI media containing 100 IU/mL penicillin, 100 ug/mL streptomycin. Following the pretreatment 2′,3′-O-(4-benzoylbenzoyl)-adenosine 5′-triphosphate (Sigma Aldrich Cat # B6396) is added to a final concentration of 250 uM and the cells are incubated for an additional 45 minutes. 30 uL of cell supernatant is then collected and IL-1β levels determined via ELISA (R&D systems Cat. # HSLB50) according to manufacturer's recommendations using the Tecan Safire plate reader. Background adjusted IL-1β levels of drug treated and non-treated cells are used to calculate the percent inhibition.
# The following compounds have been or can be prepared according to the synthetic methods described above. For the purpose of Table 1 below, activity of each compound, which can be determined using the IL-1β assay method described in Example 9, is expressed as follows: […]
# The compounds set forth in Table 1 were tested for activity in a cellular model as described herein. Specifically, cells were pretreated with differing amounts of the compound under test and released IL-1β determined as in Example 9, above. Measurements were made and IC50 values, presented in Table 2, below, were determined by fitting the data to a four parameter logistic equation using GraphPad Prism software (GraphPad Software, Inc). The equation may be expressed by the following formula:
# Y=Bottom+(Top−Bottom)/(1+10̂((Log EC50−X)*HillSlope))
# Where X is the logarithm of concentration, Y is the response and Y starts at Bottom and goes to Top with a sigmoid shape.
row,SMILES,inhibition at 0.1 µM
1,N#Cc1ccccc1S(=O)(=O)N1CCc2c(ccc(Cl)c2NC(=O)Cc2ccc(C(F)(F)F)cc2)C1 [Compound 3027],0 to 25%
2,O=C(Cc1ccc(C(F)(F)F)cc1)Nc1c(Cl)ccc2c1CCN(S(=O)(=O)c1ccc(Cl)cc1)C2 [Compound 3013],0 to 25%
3,O=C(Cc1ccc(C(F)(F)F)cc1)Nc1c(Cl)ccc2c1CCN(S(=O)(=O)c1ccccc1F)C2 [Compound 3002],0 to 25%
4,O=C(Cc1ccc(C(F)(F)F)cc1)Nc1c(Cl)ccc2c1CCN(S(=O)(=O)c1cccc(C(F)(F)F)c1)C2 [Compound 3032],0 to 25%
5,O=C(Cc1ccc(C(F)(F)F)cc1)Nc1c(Cl)ccc2c1CCN(S(=O)(=O)c1ccc(F)cc1Cl)C2 [Compound 3017],0 to 25%
6,O=C(Cc1ccc(C(F)(F)F)cc1)Nc1c(Cl)ccc2c1CCN(S(=O)(=O)c1c(F)cccc1F)C2 [Compound 3009],0 to 25%
7,O=C(Cc1ccc(C(F)(F)F)cc1)Nc1c(Cl)ccc2c1CCN(S(=O)(=O)c1cccc(Cl)c1)C2 [Compound 3012],0 to 25%
8,O=C(Cc1ccc(C(F)(F)F)cc1)Nc1c(Cl)ccc2c1CCN(S(=O)(=O)c1ccc(F)cc1)C2 [Compound 3004],0 to 25%

# Same assay, conditions: Homo sapiens; 0.3 μM compound ("+" symbols); differentiated THP-1 cells, 250 uM BzATP; read-out: IL-1β% Inhib. @ 0.3 or 0.1 μM
row,SMILES,inhibition at 0.3 µM
1,"CC(c1ccc(F)cc1)N1CCc2c(cccc2NC(=O)Cc2ccc(C(F)(F)F)c(F)c2)C1 (centres unmarked) [Compound 3059, N-{2-[1-(4-Fluoro-phenyl)-ethyl]-1,2,3,4-tetrahydro-isoquinolin-5-yl}-2-(3-fluoro-4-trifluoromethyl-phenyl)-acetamide]",51 to 75%
2,O=C(Cc1cccc(C(F)(F)F)c1F)Nc1c(Cl)ccc2c1CCN(C(=O)Cc1ccc(Cl)cc1)C2 [Compound 3168],0 to 25%
3,O=C(Cc1cccc(C(F)(F)F)c1F)Nc1c(Cl)ccc2c1CCN(C(=O)c1ccccc1C(F)(F)F)C2 [Compound 3170],0 to 25%
4,CCC(=O)N1CCc2c(ccc(Cl)c2NC(=O)Cc2cccc(C(F)(F)F)c2F)C1 [Compound 3138],0 to 25%
5,O=C(Cc1ccc(C(F)(F)F)c(F)c1)Nc1c(Cl)ccc2c1CCN(C(=O)c1ccncc1)C2 [Compound 3126],0 to 25%
6,O=C(Cc1cccc(C(F)(F)F)c1F)Nc1c(Cl)ccc2c1CCN(C(=O)C1CCC1)C2 [Compound 3164],0 to 25%
7,CC(C)(C)c1ccc(C(=O)N2CCc3c(ccc(Cl)c3NC(=O)Cc3cccc(C(F)(F)F)c3F)C2)cc1 [Compound 3188],≥ 76%
8,CC(=O)Nc1ccc(C(=O)N2CCc3c(ccc(Cl)c3NC(=O)Cc3ccc(C(F)(F)F)c(F)c3)C2)cc1 [Compound 3128],0 to 25%
9,O=C(Cc1cccc(C(F)(F)F)c1F)Nc1c(Cl)ccc2c1CCN(C(=O)c1cccc(Cl)c1)C2 [Compound 3156],0 to 25%
10,O=C(Cc1cccc(C(F)(F)F)c1F)Nc1c(Cl)ccc2c1CCN(C(=O)C1CC1)C2 [Compound 3165],0 to 25%
11,"O=C(Cc1ccc(C(F)(F)F)cc1)Nc1c(Cl)ccc2c1CCN(S(=O)(=O)c1ccccc1Cl)C2 [Compound 3001, N-[6-Chloro-2-(2-chloro-benzenesulfonyl)-1,2,3,4-tetrahydro-isoquinolin-5-yl]-2-(4-trifluoromethyl-phenyl)-acetamide]",≥ 76%
12,O=C(Cc1ccc(C(F)(F)F)c(F)c1)Nc1c(Cl)ccc2c1CCN(C(=O)c1ccc(C(F)(F)F)nc1)C2 [Compound 3132],0 to 25%
13,O=C(Cc1ccc(C(F)(F)F)c(F)c1)Nc1cccc2c1CCN(CC(O)c1ccc(Cl)cc1)C2 (centres unmarked) [Compound 3066],51 to 75%
14,O=C(Cc1ccc(C(F)(F)F)c(F)c1)Nc1c(Cl)ccc2c1CCN(C(=O)c1cccnc1)C2 [Compound 3079],0 to 25%
15,O=C(Cc1ccc(C(F)(F)F)c(F)c1)Nc1cccc2c1CCN(C(=O)[C@H]1CCCN1)C2 [Compound 3051],≥ 76%
16,COCC(=O)N1CCc2c(ccc(Cl)c2NC(=O)Cc2cccc(C(F)(F)F)c2F)C1 [Compound 3145],51 to 75%
17,"CCC(O)CN1CCc2c(cccc2NC(=O)Cc2ccc(C(F)(F)F)c(F)c2)C1 (centres unmarked) [Compound 3058, 2-(3-Fluoro-4-trifluoromethyl-phenyl)-N-[2-(2-hydroxy-butyl)-1,2,3,4-tetrahydro-isoquinolin-5-yl]-acetamide]",26 to 50%

row,SMILES,inhibition at 0.3 µM
1,O=C(Cc1cccc(C(F)(F)F)c1F)Nc1c(Cl)ccc2c1CCN(C(=O)c1cc(F)ccc1F)C2 [Compound 3177],0 to 25%
2,O=C(Cc1ccc(C(F)(F)F)c(F)c1)Nc1c(Cl)ccc2c1CCN(C(=O)CCc1ccccc1)C2 [Compound 3089],0 to 25%
3,O=C(Cc1ccc(C(F)(F)F)c(F)c1)Nc1c(Cl)ccc2c1CCN(C(=O)c1ccccc1F)C2 [Compound 3114],0 to 25%
4,O=C(Cc1cccc(C(F)(F)F)c1F)Nc1c(Cl)ccc2c1CCN(C(=O)c1ccncc1)C2 [Compound 3190],0 to 25%
5,CCCC(O)CN1CCc2c(cccc2NC(=O)Cc2ccc(C(F)(F)F)c(F)c2)C1 (centres unmarked) [Compound 3063],26 to 50%
6,C[C@H](NC(=O)OC(C)(C)C)C(=O)N1CCc2c(cccc2NC(=O)Cc2ccc(C(F)(F)F)c(F)c2)C1 [Compound 3048],0 to 25%
7,O=C(Cc1cccc(C(F)(F)F)c1F)Nc1c(Cl)ccc2c1CCN(C(=O)c1ccc3ccccc3n1)C2 [Compound 3189],0 to 25%
8,O=C(Cc1cccc(C(F)(F)F)c1F)Nc1c(Cl)ccc2c1CCN(C(=O)CC1CCCC1)C2 [Compound 3166],0 to 25%
9,O=C(Cc1cccc(C(F)(F)F)c1F)Nc1c(Cl)ccc2c1CCN(C(=O)c1cccc(Cl)c1Cl)C2 [Compound 3179],26 to 50%
10,O=C(Cc1ccc(C(F)(F)F)c(F)c1)Nc1c(Cl)ccc2c1CCN(C(=O)COCc1ccccc1)C2 [Compound 3097],0 to 25%
11,O=C(Cc1ccc(C(F)(F)F)c(F)c1)Nc1cccc2c1CCN(C(=O)C1CCOCC1)C2 [Compound 3038],0 to 25%
12,CCC(C(=O)N1CCc2c(ccc(Cl)c2NC(=O)Cc2cccc(C(F)(F)F)c2F)C1)c1ccccc1 (centres unmarked) [Compound 3157],0 to 25%
13,COc1ccc(C(=O)N2CCc3c(ccc(Cl)c3NC(=O)Cc3ccc(C(F)(F)F)c(F)c3)C2)cc1OC [Compound 3129],0 to 25%
14,CC(=O)N1CCC(C(=O)N2CCc3c(ccc(Cl)c3NC(=O)Cc3ccc(C(F)(F)F)c(F)c3)C2)CC1 [Compound 3122],0 to 25%
15,Cc1ccc(F)c(C(=O)N2CCc3c(ccc(Cl)c3NC(=O)Cc3ccc(C(F)(F)F)c(F)c3)C2)c1Cl [Compound 3107],0 to 25%
16,COc1cccc(C(=O)N2CCc3c(ccc(Cl)c3NC(=O)Cc3ccc(C(F)(F)F)c(F)c3)C2)c1 [Compound 3090],0 to 25%
17,O=C(Cc1ccc(C(F)(F)F)c(F)c1)Nc1cccc2c1CCN(CC(O)C(O)(c1ccccc1)C(F)(F)F)C2 (centres unmarked) [Compound 3067],≥ 76%

# Same assay, conditions: Homo sapiens; THP-1 cells, BzATP 250 uM, four parameter logistic fit
row,SMILES,IC50
1,"CC(c1ccc(F)cc1)N1CCc2c(cccc2NC(=O)Cc2ccc(C(F)(F)F)c(F)c2)C1 (centres unmarked) [Compound 3059, N-{2-[1-(4-Fluoro-phenyl)-ethyl]-1,2,3,4-tetrahydro-isoquinolin-5-yl}-2-(3-fluoro-4-trifluoromethyl-phenyl)-acetamide]",256 nM
2,CCCCS(=O)(=O)N1CCc2c(ccc(C)c2NC(=O)Cc2ccc(C(F)(F)F)c(F)c2)C1 [Compound 3448],65.4 nM
3,Cc1ccc2c(c1NC(=O)Cc1ccc(C(F)(F)F)c(F)c1)CCN(C(=O)C1CCC1)C2 [Compound 3473],23.8 nM
4,"O=C(Cc1ccc(C(F)(F)F)cc1)Nc1c(Cl)ccc2c1CCN(S(=O)(=O)c1ccccc1Cl)C2 [Compound 3001, N-[6-Chloro-2-(2-chloro-benzenesulfonyl)-1,2,3,4-tetrahydro-isoquinolin-5-yl]-2-(4-trifluoromethyl-phenyl)-acetamide]",49.3 nM
5,O=C(Cc1ccc(C(F)(F)F)c(F)c1)Nc1cccc2c1CCN(CC(O)c1ccc(Cl)cc1)C2 (centres unmarked) [Compound 3066],219 nM
6,O=C(Cc1ccc(C(F)(F)F)c(F)c1)Nc1cccc2c1CCN(C(=O)[C@H]1CCCN1)C2 [Compound 3051],73 nM
7,CCS(=O)(=O)N1CCc2c(ccc(C)c2NC(=O)Cc2ccc(C(F)(F)F)c(F)c2)C1 [Compound 3433],25.2 nM
8,CC(C)(C)C(=O)N1CCc2c(ccc(C3CC3)c2NC(=O)Cc2ccc(C(F)(F)F)c(F)c2)C1 [Compound 3482],165 nM
9,"COc1ccc2c(c1NC(=O)Cc1ccc(C(F)(F)F)c(F)c1)CCN(C(=O)CC1(O)CCCC(C)(C)C1)C2 (centres unmarked) [Compound 3478, 2-(3-Fluoro-4-trifluoromethyl-phenyl)-N-{2-[2-(1-hydroxy-3,3-dimethyl-cyclohexyl)-acetyl]-6-methoxy-1,2,3,4-tetrahydro-isoquinolin-5-yl}-acetamide]",192 nM
10,"CCC(O)CN1CCc2c(cccc2NC(=O)Cc2ccc(C(F)(F)F)c(F)c2)C1 (centres unmarked) [Compound 3058, 2-(3-Fluoro-4-trifluoromethyl-phenyl)-N-[2-(2-hydroxy-butyl)-1,2,3,4-tetrahydro-isoquinolin-5-yl]-acetamide]",338 nM
11,COc1ccc(OC)c(S(=O)(=O)N2CCc3c(ccc(C)c3NC(=O)Cc3ccc(C(F)(F)F)c(F)c3)C2)c1 [Compound 3452],27.9 nM
12,CCCC(O)CN1CCc2c(cccc2NC(=O)Cc2ccc(C(F)(F)F)c(F)c2)C1 (centres unmarked) [Compound 3063],673 nM
13,C[C@H](NC(=O)OC(C)(C)C)C(=O)N1CCc2c(cccc2NC(=O)Cc2ccc(C(F)(F)F)c(F)c2)C1 [Compound 3048],473 nM
14,Cc1ccc2c(c1NC(=O)Cc1ccc(C(F)(F)F)c(F)c1)CCN(C(=O)C(C)(C)CO)C2 [Compound 3472],203 nM
15,O=C(Cc1ccc(C(F)(F)F)c(F)c1)Nc1cccc2c1CCN(C(=O)C1CCOCC1)C2 [Compound 3038],430 nM
16,O=C(Cc1ccc(C(F)(F)F)c(F)c1)Nc1c(Cl)ccc2c1CCN(S(=O)(=O)c1ccccc1Cl)C2 [Compound 3287],60.7 nM
17,O=C(Cc1ccc(C(F)(F)F)c(F)c1)Nc1cccc2c1CCN(CC(O)C(O)(c1ccccc1)C(F)(F)F)C2 (centres unmarked) [Compound 3067],150 nM
